Experimental data taken from patent US8268990B2, “Compounds” (AstraZeneca AB, priority 2007, dated 2012).

biological target: T1, Recombinant human TLR7 (Homo sapiens, UniProt Q9NYK1); assay: Human TLR7 Assay (SEAP reporter); format: cell-based; settings: HEK293 cell line stably expressing human TLR7 and pNiFty2-SEAP reporter; SEAP induction after overnight incubation at 37° C., 0.1% (v/v) DMSO;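 further: SEAP driven by an NFkB-responsive composite promoter, pEC50 read at half of each compound's own maximal SEAP induction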
T1 construct: expressed in transfected cells; host or cells: HEK293 cell line stably expressing the pNiFty2-SEAP reporter plasmid; TLR7 in vector pUNO, blasticidin selection
T1 sequence (Q9NYK1 27-1049): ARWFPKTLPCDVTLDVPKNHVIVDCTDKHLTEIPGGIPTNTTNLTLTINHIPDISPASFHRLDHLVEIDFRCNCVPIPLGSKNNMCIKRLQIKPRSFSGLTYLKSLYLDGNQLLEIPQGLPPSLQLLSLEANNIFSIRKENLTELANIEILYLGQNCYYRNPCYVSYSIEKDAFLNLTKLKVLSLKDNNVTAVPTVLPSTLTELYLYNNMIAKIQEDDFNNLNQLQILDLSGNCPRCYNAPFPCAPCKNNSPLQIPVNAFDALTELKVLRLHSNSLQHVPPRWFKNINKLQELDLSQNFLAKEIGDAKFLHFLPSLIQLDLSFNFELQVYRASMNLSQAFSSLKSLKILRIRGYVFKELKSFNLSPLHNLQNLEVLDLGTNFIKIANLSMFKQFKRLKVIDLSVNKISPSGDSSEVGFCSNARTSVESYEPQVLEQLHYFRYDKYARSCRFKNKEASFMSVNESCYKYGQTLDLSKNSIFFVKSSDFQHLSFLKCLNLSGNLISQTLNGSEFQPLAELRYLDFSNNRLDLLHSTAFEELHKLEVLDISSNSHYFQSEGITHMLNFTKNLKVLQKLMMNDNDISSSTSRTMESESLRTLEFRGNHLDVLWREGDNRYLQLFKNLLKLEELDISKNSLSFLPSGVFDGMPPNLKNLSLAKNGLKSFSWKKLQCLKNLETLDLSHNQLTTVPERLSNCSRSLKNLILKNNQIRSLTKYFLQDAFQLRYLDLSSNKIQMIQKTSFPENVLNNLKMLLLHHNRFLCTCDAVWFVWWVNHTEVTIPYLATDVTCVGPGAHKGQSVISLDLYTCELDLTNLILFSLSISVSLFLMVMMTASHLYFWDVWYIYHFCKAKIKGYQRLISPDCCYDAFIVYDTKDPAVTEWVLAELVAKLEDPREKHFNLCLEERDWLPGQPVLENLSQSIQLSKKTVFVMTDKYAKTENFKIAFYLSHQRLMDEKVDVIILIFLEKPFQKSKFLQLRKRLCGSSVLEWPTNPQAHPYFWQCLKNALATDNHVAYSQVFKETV
Source text: Recombinant human TLR7 was stably expressed in a HEK293 cell line already stably expressing the pNiFty2-SEAP reporter plasmid; integration of the reporter gene was maintained by selection with the antibiotic zeocin. The most common variant sequence of human TLR7 (represented by the EMBL sequence AF240467) was cloned into the mammalian cell expression vector pUNO and transfected into this reporter cell-line. Transfectants with stable expression were selected using the antibiotic blasticidin. In this reporter cell-line, expression of secreted alkaline phosphatase (SEAP) is controlled by an NFkB/ELAM-1 composite promoter comprising five NFkB sites combined with the proximal ELAM-1 promoter. TLR signaling leads to the translocation of NFkB and activation of the promoter results in expression of the SEAP gene. TLR7-specific activation was assessed by determining the level of SEAP produced following overnight incubation of the cells at 37° C. with the standard compound in the presence of 0.1% (v/v) dimethylsulfoxide (DMSO). Concentration dependent induction of SEAP production by compounds was expressed as the concentration of compound which produced half of the maximal level of SEAP induction for that compound (pEC50).

EC50 [nM]	Compound
50.1	CCC[C@@H](CCO)Nc1nc(N)nc(C)c1Cc1ccc(CC(=O)OCCCCN2CCCC2)cc1O [Example 78, (S)-4-(Pyrrolidin-1-yl)butyl 2-(4-((2-amino-4-(1-hydroxyhexan-3-ylamino)-6-methylpyrimidin-5-yl)methyl)-3-hydroxyphenyl)acetate]
126	CCCCNc1nc(N)nc(C)c1Cc1ccc(CC(=O)OCCCCN2CCCC2)cc1O [Example 79, 4-(Pyrrolidin-1-yl)butyl 2-(4-((2-amino-4-(butylamino)-6-methylpyrimidin-5-yl)methyl)-3-hydroxyphenyl)acetate]
1000	CC[C@H](O)CNc1nc(N)nc(C)c1Cc1ccc(CC(=O)OCC2CCN(C)CC2)cc1 [Example 81, (S)-(1-Methylpiperidin-4-yl)methyl 2-(4-((2-amino-4-(2-hydroxybutylamino)-6-methylpyrimidin-5-yl)methyl)phenyl)acetate]
100	CCCCNc1nc(N)nc(C)c1Cc1ccc(CC(=O)OCCCCN2CCCC2)cc1 [Example 82, 4-(Pyrrolidin-1-yl)butyl 2-(4-((2-amino-4-(butylamino)-6-methylpyrimidin-5-yl)methyl)phenyl)acetate]
20	CCCCNc1nc(N)nc(C)c1Cc1cc(CC(=O)OCC2CCN(C)CC2)ccc1OC [Example 83, (1-Methylpiperidin-4-yl)methyl 2-(3-((2-amino-4-(butylamino)-6-methylpyrimidin-5-yl)methyl)-4-methoxyphenyl)acetate]
316	CCCCCNc1nc(N)nc(C)c1Cc1cccc(CC(=O)OCCCCN2CCCC2)c1 [Example 84, 4-(Pyrrolidin-1-yl)butyl 2-(3-((2-amino-4-methyl-6-(pentylamino)pyrimidin-5-yl)methyl)phenyl)acetate]
501	CCCCCNc1nc(N)nc(C)c1Cc1cccc(CC(=O)OCC2CCN(C)CC2)c1 [Example 85, (1-Methylpiperidin-4-yl)methyl 2-(3-((2-amino-4-methyl-6-(pentylamino)pyrimidin-5-yl)methyl)phenyl)acetate]
200	CCC[C@@H](CCO)Nc1nc(N)nc(C)c1Cc1ccc(CC(=O)OCCCCN(C)C)cc1F [Example 86, (S)-4-(Dimethylamino)butyl 2-(4-((2-amino-4-(1-hydroxyhexan-3-ylamino)-6-methylpyrimidin-5-yl)methyl)-3-fluorophenyl)acetate]
25.1	CCC[C@@H](CCO)Nc1nc(N)nc(C)c1Cc1ccc(CC(=O)OCCCCN2CCN(C)CC2)cc1F [Example 87, (S)-4-(4-Methylpiperazin-1-yl)butyl 2-(4-((2-amino-4-(1-hydroxyhexan-3-ylamino)-6-methylpyrimidin-5-yl)methyl)-3-fluorophenyl)acetate]
100	CCC[C@@H](CO)Nc1nc(N)nc(C)c1Cc1ccc(CC(=O)OC)cc1O [Example 88, (S)-Methyl 2-(4-((2-amino-4-(1-hydroxypentan-2-ylamino)-6-methylpyrimidin-5-yl)methyl)-3-hydroxyphenyl)acetate]
50.1	CCCCNc1nc(N)nc(C)c1Cc1ccc(CC(=O)OCCO)cc1OC [Example 89, 2-Hydroxyethyl 2-(4-((2-amino-4-(butylamino)-6-methylpyrimidin-5-yl)methyl)-3-methoxyphenyl)acetate]
25.1	CCCCNc1nc(N)nc(C)c1Cc1ccc(CC(=O)OCCCCN2CCC(N(C)C)CC2)cc1OC [Example 90, 4-(4-(Dimethylamino)piperidin-1-yl)butyl 2-(4-((2-amino-4-(butylamino)-6-methylpyrimidin-5-yl)methyl)-3-methoxyphenyl)acetate]
20	CCCCNc1nc(N)nc(C)c1Cc1ccc(CC(=O)OCCCCO)cc1OC [Example 91, 4-Hydroxybutyl 2-(4-((2-amino-4-(butylamino)-6-methylpyrimidin-5-yl)methyl)-3-methoxyphenyl)acetate]
20	CCCCNc1nc(N)nc(C)c1Cc1ccc(CC(=O)OCCCS(C)(=O)=O)cc1OC [Example 92, 3-(Methylsulfonyl)propyl 2-(4-((2-amino-4-(butylamino)-6-methylpyrimidin-5-yl)methyl)-3-methoxyphenyl)acetate]
20	CCCCNc1nc(N)nc(C)c1Cc1ccc(CC(=O)OCCCO)cc1OC [Example 93, 3-Hydroxypropyl 2-(4-((2-amino-4-(butylamino)-6-methylpyrimidin-5-yl)methyl)-3-methoxyphenyl)acetate]
126	CCC[C@@H](CCO)Nc1nc(N)nc(C)c1Cc1ccc(CC(=O)OCCCCN(C)C)cc1 [Example 94, (S)-4-(Dimethylamino)butyl 2-(4-((2-amino-4-(1-hydroxyhexan-3-ylamino)-6-methylpyrimidin-5-yl)methyl)phenyl)acetate]
63.1	CCCCNc1nc(N)nc(C)c1Sc1ccc(CC(=O)OCC2CCN(C)CC2)cc1 [Example 95, (1-Methylpiperidin-4-yl)methyl 2-(4-(2-amino-4-(butylamino)-6-methylpyrimidin-5-ylthio)phenyl)acetate]
50.1	CCCCNc1nc(N)nc(C)c1Sc1ccc(CC(=O)OCCCCN2CCCC2)cc1 [Example 96, 4-(Pyrrolidin-1-yl)butyl 2-(4-(2-amino-4-(butylamino)-6-methylpyrimidin-5-ylthio)phenyl)acetate]
31.6	CCCCNc1nc(N)nc(C)c1Cc1cc(CC(=O)OCCCCN(C)C)ccc1OC [Example 97, 4-(Dimethylamino)butyl 2-(3-((2-amino-4-(butylamino)-6-methylpyrimidin-5-yl)methyl)-4-methoxyphenyl)acetate]
50.1	CCCCNc1nc(N)nc(C)c1Cc1cc(CC(=O)OC)ccc1OC [Example 98, Methyl 2-(3-((2-amino-4-(butylamino)-6-methylpyrimidin-5-yl)methyl)-4-methoxyphenyl)acetate]
79.4	CCCCNc1nc(N)nc(C)c1Cc1cc(CC(=O)OC)ccc1O [Example 99, Methyl 2-(3-((2-amino-4-(butylamino)-6-methylpyrimidin-5-yl)methyl)-4-hydroxyphenyl)acetate]
31.6	CCC[C@@H](CCO)Nc1nc(N)nc(C)c1Cc1ccc(CC(=O)OCCC2CCN(C)CC2)cc1F [Example 100, (S)-2-(1-Methylpiperidin-4-yl)ethyl 2-(4-((2-amino-4-(1-hydroxyhexan-3-ylamino)-6-methylpyrimidin-5-yl)methyl)-3-fluorophenyl)acetate]
39.8	CCCCNc1nc(N)nc(C)c1Cc1ccc(CC(=O)OCCc2scnc2C)cc1OC [Example 101, 2-(4-Methylthiazol-5-yl)ethyl 2-(4-((2-amino-4-(butylamino)-6-methylpyrimidin-5-yl)methyl)-3-methoxyphenyl)acetate]
100	CCCCNc1nc(N)nc(C)c1Cc1ccc(CC(=O)OCCCCN(C)C)cc1O [Example 102, 4-(Dimethylamino)butyl 2-(4-((2-amino-4-(butylamino)-6-methylpyrimidin-5-yl)methyl)-3-hydroxyphenyl)acetate]
126	CCCCNc1nc(N)nc(C)c1Cc1ccc(CC(=O)OCC2CCN(C)CC2)cc1O [Example 103, (1-Methylpiperidin-4-yl)methyl 2-(4-((2-amino-4-(butylamino)-6-methylpyrimidin-5-yl)methyl)-3-hydroxyphenyl)acetate]
